Assay results taken from patent US20240166662A1, “THIOPHENE BASED COMPOUNDS AND USE THEREOF AS BCKDK INHIBITORS” (Ramino-Bio Ltd., priority 2021, published 2024).
Like-named read-outs stand apart in the source and are kept apart here.

How the values were obtained:
BDK (MBP-BDK) [1] = assay: Cell-free BDK activity assay (ADP-Glo kinase kit); type: biochemical; settings: in-vitro
From the text: (§1) Cell-free BDK activity assay was developed based on protocols and published work of David Chuang as described in Tso et al. 2014. Briefly, The main components of the enzymatic cell-free activity assay are the kinase-BDK (MBP-BDK), its 14 kDa synthetic substrate Lip-LBD-PhP, and ATP. The detection is being done with Promega ADP-Glo™ kinase kit. The assay is robust generating an assay window (AW)>5 and Z′−factor>0.5. The concentrations of all assay components were reduced relative to published concentrations and the assay was validated using known BDK inhibitors.
(§2) Constructs: a synthetic 14 KDa peptide that serves as a substrate for BDK instead of the multimeric BCKDH. This peptide, named LBD-PhP, is composed of the lipoyl binding domain (LBD) of the BCKDH E2 subunit connected by a linker to the phosphorylation peptide (PhP) of the E1α subunit. LBD-PhP is lipoylated in vitro using the E. Coli enzyme—lipoylate ligase (Lp1A) to achieve enhancement of BDK substrate phosphorylation. Additionally, a chimeric BDK in which the kinase is fused in its N-terminus to MBP, generating-MBP-BDK to increase BDK solubility and stability.
(§3) Reaction: The ADP detection is composed of the following steps:
(§4) Kinase reaction is performed by adding BDK, lip-LBD-PhP and ATP and incubating for 60 min at room temperature. This is done in solid white 384-well plates and the total volume of the reaction is 10 μl.
(§5) ADP-Glo reagent is added to terminate the kinase reaction and to deplete the remaining ATP and incubated for 40 min.
(§6) Kinase detection reagent is added for ADP detection: The ADP is converted to ATP and using a series of enzymatic reactions the newly synthesized ATP generates a luminescent signal which is proportional to the amount of the initial ADP formed by the kinase reaction. Luminescence is measured using a plate reader (Tecan Spark 20M plate reader).
(§7) In a typical experiment the AW and Z-factor are calculated from 12 repeats of positive control (100% activity) and 12 repeats of negative control (0% activity).
(§8) Positive control (100% activity)=maximal kinase activity with ATP and substrate. Negative control (0% activity)=minimal kinase activity with ATP alone (no substrate). AW: Average100%/Average0%. Z-factor: 1−((3*STDEV100%+3*STDEV0%)/(Average100%−Average0%)).
(§9) Each 384-well plate-based screening experiment includes serial dilutions of 14 different compounds and the following controls: 1. A known BDK tool compound BT2 (for allosteric inhibitors)/Radicicol (for ATP-pocket inhibitors) 2. Twelve repeats of positive and negative controls. Analyzed compounds and tool compounds are serially diluted, 8-point half log from 50 μM to 16 nM in triplicates. The positive and negative controls are used to calculate AW and Z-factor and to enable data normalization.

BCKDH = settings: WT and iMSUD patient derived lymphoblasts; cited from earlier work
BDK [2] = biological target: T1, BDK (Homo sapiens, UniProt O14874); assay: BDK inhibitory activity in cell culture (human lymphoblasts); type: cell-based
T1 construct: endogenous in cells; host or cells: human lymphoblasts

[3] = Plasma protein binding (mouse); type: in vitro ADME
From the text: (§10) Various pharmacokinetic parameters of exemplary compounds of the invention have been established in-vivo and are presented in Table 2 below.

BDK (MBP-BDK) [4] = biological target: T2, BDK (MBP-BDK) (UniProt Q00972); assay: Cell-free BDK activity assay (ADP-Glo kinase kit); type: biochemical; settings: cell-free BDK activity assay
T2 construct: IC50 BDK; other: cell-free BDK activity assay; other: in-vitro; assay not specified
From the text: as §1, §2, §3, §4, §5, §6, §7, §8, §9

[5] = Plasma protein binding (human); type: in vitro ADME
From the text: as §10

[6] = Pharmacokinetic parameters in-vivo (IV, IP, PO); settings: for AUC: read-out: Exposure (AUC); for bioavailability: read-out: Oral bioavailability (F); for Vd: read-out: Volume of distribution (Vd)
From the text: as §10

BDK [7] = biological target: T1, BDK; assay: Cell-based ELISA of BDK activity (E1α phosphorylation level) in WT and iMSUD patient derived lymphoblasts; settings: WT and mutant lymphoblasts derived from iMSUD patients
From the text: Accordingly, the inventors performed cell studies in order to test the efficacy of the exemplary compounds of the invention on the BCKDH E1α subunit phosphorylation level, as it is BDK substrate in WT and iMSUD lymphoblasts and fibroblasts. Efficacy of the tested compounds RMO-1154 and RMO-800 in 2 MSUD lymphoblasts lines has been determined using cell-based ELISA to quantify BDK activity in treated cells as monitored by the phosphorylation level of BDK substrate, E1α. Healthy donor cells and BT2 (commercially available BDK inhibitor) have been used as positive controls.

[8] = test system: BCKA (KIV, KIC, KMV) plasma concentration; assay: In-vivo BCKA plasma concentration in WT mice by LC-MS; settings: for reduction of BCKA (such as KIC and/or KMV) plasma concentrations: 3 single doses a day for 7 days, day 8, WT mice
From the text: An alternative assay for assessment of BCKDH activity comprises measuring of BCKAs blood (e.g. plasma) concentration within the subject. BCKAs (such as a-keto isovalerate (abbreviated as KIV), sodium a-keto isocaproate (abbreviated as KIC), sodium a-keto β-methylvalerate (abbreviated as KMV)) are downstream metabolites of BCAAs, and the substrates of BCKDH complex, and are considered to be reliable and sensitive biomarkers for BDK inhibition and BCKDH complex activity enhancement.
BCKA blood concentration of a subject can be determined by various analytical methods, such as by LC-MS.
The inventors performed an in-vivo study by administering an exemplary compound of the invention (RMO-1154) to 8-10 week-old […] WT mice (n=5). RMO-1154 has been administered (per os, 3 single doses a day every 8 hrs, for 7 days) at various single doses (10 mg/kg, 30 mg/kg, and 100 mg/kg). At day 8, KIV, KIC and KMV plasma concentration has been determined by LC-MS.

[9] = human lymphoblasts, read-out: IC50 lymphoblasts

With `O=C(O)c1cc2cscc2s1` the “BDK inhibitory activity in-vitro (in words)” value (BDK (MBP-BDK) [1]) was “significant BDK inhibitory activity”.

In the case of `O=C(O)c1sc2cc(F)ccc2c1Cl` [BT2F], the “BCKDH activity (in words)” value (BCKDH) is given as “increase of the BCKDH activity”.

In the case of `O=C(O)c1sc2cc(Cl)ccc2c1Cl` [BT2], the “BCKDH activity (in words)” value (BCKDH) is listed as “increase of the BCKDH activity”.

For `CC(=O)Nc1nonc1NC(=O)c1sc2cc(Cl)ccc2c1Cl` [BT3], the “BCKDH activity (in words)” value (BCKDH) is given as “increase of the BCKDH activity”.

With `O=C(O)c1cc2c(F)c(F)sc2s1` [RMO-800, 4,5-difluorothieno[2,3-b]thiophene-2-carboxylic acid] the IC50 (BDK [2]; [9]) was 100 nM, the fraction unbound [3] was 0.012 and the IC50 (BDK (MBP-BDK) [4]) was 100 nM. It also gave a fraction unbound [5] of 0.008, an AUC ([6]; ip, 3 mg/kg) of 14700 ng·h/mL and a bioavailability ([6]; ip, 3 mg/kg) of 136%. The AUC ([6]; iv, 1 mg/kg) was 3580 ng·h/mL, the Vd ([6]; iv, 1 mg/kg) was 0.16 L/kg and the AUC ([6]; po, 3 mg/kg) was 12700 ng·h/mL. The bioavailability ([6]; po, 3 mg/kg) was 118% and the “BDK inhibitory activity (FIGS. 1A-1B, in words)” value (BDK [7]) was “BDK inhibitory activity”.

In the case of `O=C(O)c1sc2sc(F)cc2c1F` [RMO-801, 2,4-difluorothieno[2,3-b]thiophene-5-carboxylic acid], the IC50 (BDK [2]; [9]) is reported as 170 nM and the IC50 (BDK (MBP-BDK) [4]) is reported as 470 nM.

Work on `O=C(O)c1cc2c(F)sc(F)c2s1` [RMO-1149, 4,6-difluorothieno[3,4-b]thiophene-2-carboxylic acid] yielded an IC50 (BDK [2]; [9]) of 380 nM and an IC50 (BDK (MBP-BDK) [4]) of 800 nM.

In the case of `O=C(O)c1[se]c2cc(Cl)ccc2c1Cl` [RMO-1152, 3,6-dichlorobenzo[b]selenophene-2-carboxylic acid], the IC50 (BDK [2]; lymphoblasts cells, unit inferred) is reported as 2860 to 13600 nM.

With `O=C(O)c1sc2sccc2c1F` [RMO-1153, 4-fluorothieno[2,3-b]thiophene-5-carboxylic acid] the IC50 (BDK [2]; [9]) was 290 nM and the IC50 (BDK (MBP-BDK) [4]) was 490 nM.

With `O=C(O)c1cc2cc(F)sc2s1` [RMO-1153B, 5-fluorothieno[2,3-b]thiophene-2-carboxylic acid] the IC50 (BDK (MBP-BDK) [4]) was 610 nM.

In the case of `O=C(O)c1sc2cscc2c1F` [RMO-1154, 3-fluorothieno[3,4-b]thiophene-2-carboxylic acid], the IC50 (BDK [2]; [9]) is reported as 580 nM, the fraction unbound [3] is reported as 0.108 and the “reduction of BCKA (such as KIC and/or KMV) plasma concentrations” value ([8]; 10 mg/kg per os) is reported as “about 2 fold”. For the same compound, the “reduction of BCKA (such as KIC and/or KMV) plasma concentrations” value ([8]; 30 mg/kg per os) was 8-10 fold, the “reduction of BCKA (such as KIC and/or KMV) plasma concentrations” value ([8]; 100 mg/kg per os) was 10-12 fold and the “in-vivo reduction of BCKA (KIV, KIC, KMV) concentration in plasma (FIG. 2, in words)” value ([8]; WT mice, day 8) was “dose dependent in-vivo reduction”. For the same compound, the IC50 (BDK (MBP-BDK) [4]) was 560 nM, the fraction unbound [5] was 0.015 and the AUC ([6]; ip, 3 mg/kg) was 18000 ng·h/mL. It also gave a bioavailability ([6]; ip, 3 mg/kg) of 98%, an AUC ([6]; iv, 1 mg/kg) of 6130 ng·h/mL and a Vd ([6]; iv, 1 mg/kg) of 0.15 L/kg. The AUC ([6]; po, 3 mg/kg) was 19400 ng·h/mL, the bioavailability ([6]; po, 3 mg/kg) was 104% and the “BDK inhibitory activity (FIGS. 1A-1B, in words)” value (BDK [7]) was “BDK inhibitory activity”.
